From ChEMBL document CHEMBL3822398, “Design, synthesis and in vitro biological evaluation of short-chain C12-sphinganine and its 1,2,3-triazole analogs as potential antimicrobial and anti-biofilm agents” (Eur J Med Chem, 2016)
Active and inactive are the calls of the source.

What was measured:
[1] = system: Staphylococcus aureus; test: Antibacterial activity against Staphylococcus aureus MTCC 96 incubated for 24 hrs at 37 degC by well diffusion method; format: functional; conditions: MTCC 96, 24 h
[2] = system: Bacillus subtilis; test: Antibacterial activity against Bacillus subtilis MTCC 121 incubated for 24 hrs at 37 degC by well diffusion method; format: functional; conditions: MTCC 121, 24 h
[3] = system: Staphylococcus aureus; test: Antibacterial activity against Staphylococcus aureus MLS16 MTCC 2940 incubated for 24 hrs at 37 degC by well diffusion method; format: functional; conditions: MLS16 MTCC 2940, 24 h
[4] = system: Micrococcus luteus; test: Antibacterial activity against Micrococcus luteus MTCC 2470 incubated for 24 hrs at 37 degC by well diffusion method; format: functional; conditions: MTCC 2470, 24 h
[5] = system: Raoultella planticola; test: Antibacterial activity against Klebsiella planticola MTCC 530 incubated for 24 hrs at 37 degC by well diffusion method; format: functional; conditions: MTCC 530, 24 h
[6] = system: Escherichia coli; test: Antibacterial activity against Escherichia coli MTCC 739 incubated for 24 hrs at 37 degC by well diffusion method; format: functional; conditions: MTCC 739, 24 h
[7] = system: Pseudomonas aeruginosa; test: Antibacterial activity against Pseudomonas aeruginosa MTCC 2453 incubated for 24 hrs at 37 degC by well diffusion method; format: functional; conditions: MTCC 2453, 24 h
[8] = system: Staphylococcus aureus; test: Bactericidal activity against Staphylococcus aureus MTCC 96 incubated for 24 hrs; format: functional; conditions: MTCC 96, 24 h
[9] = system: Bacillus subtilis; test: Bactericidal activity against Bacillus subtilis MTCC 121 incubated for 24 hrs; format: functional; conditions: MTCC 121, 24 h
[10] = system: Staphylococcus aureus; test: Bactericidal activity against Staphylococcus aureus MLS16 MTCC 2940 incubated for 24 hrs; format: functional; conditions: MLS16 MTCC 2940, 24 h
[11] = system: Micrococcus luteus; test: Bactericidal activity against Micrococcus luteus MTCC 2470 incubated for 24 hrs; format: functional; conditions: MTCC 2470, 24 h
[12] = system: Raoultella planticola; test: Bactericidal activity against Klebsiella planticola MTCC 530 incubated for 24 hrs; format: functional; conditions: MTCC 530, 24 h
[13] = system: Escherichia coli; test: Bactericidal activity against Escherichia coli MTCC 739 incubated for 24 hrs; format: functional; conditions: MTCC 739, 24 h
[14] = system: Candida albicans; test: Antifungal activity against Candida albicans MTCC 183 incubated for 24 hrs at 30 degC by well diffusion method; format: functional; conditions: MTCC 183, 24 h
[15] = system: Candida albicans; test: Antifungal activity against Candida albicans MTCC 227 incubated for 24 hrs at 30 degC by well diffusion method; format: functional; conditions: MTCC 227, 24 h
[16] = system: Candida albicans; test: Antifungal activity against Candida albicans MTCC 854 incubated for 24 hrs at 30 degC by well diffusion method; format: functional; conditions: MTCC 854, 24 h
[17] = system: Candida albicans; test: Antifungal activity against Candida albicans MTCC 1637 incubated for 24 hrs at 30 degC by well diffusion method; format: functional; conditions: MTCC 1637, 24 h
[18] = system: Candida albicans; test: Antifungal activity against Candida albicans MTCC 3017 incubated for 24 hrs at 30 degC by well diffusion method; format: functional; conditions: MTCC 3017, 24 h
[19] = system: Candida albicans; test: Antifungal activity against Candida albicans MTCC 3018 incubated for 24 hrs at 30 degC by well diffusion method; format: functional; conditions: MTCC 3018, 24 h
[20] = system: Candida albicans; test: Antifungal activity against Candida albicans MTCC 3958 incubated for 24 hrs at 30 degC by well diffusion method; format: functional; conditions: MTCC 3958, 24 h
[21] = system: Candida albicans; test: Antifungal activity against Candida albicans MTCC 4748 incubated for 24 hrs at 30 degC by well diffusion method; format: functional; conditions: MTCC 4748, 24 h
[22] = system: Candida albicans; test: Antifungal activity against Candida albicans MTCC 7315 incubated for 24 hrs at 30 degC by well diffusion method; format: functional; conditions: MTCC 7315, 24 h
[23] = system: Candida parapsilosis; test: Antifungal activity against Candida parapsilosis MTCC 1744 incubated for 24 hrs at 30 degC by well diffusion method; format: functional; conditions: Lodderomyces parapsilosis, MTCC 1744, 24 h
[24] = system: [Candida] aaseri; test: Antifungal activity against Candida aaseri MTCC 1962 incubated for 24 hrs at 30 degC by well diffusion method; format: functional; conditions: Yamadazyma aaseri, MTCC 1962, 24 h
[25] = system: Nakaseomyces glabratus; test: Antifungal activity against Candida glabrata MTCC 3019 incubated for 24 hrs at 30 degC by well diffusion method; format: functional; conditions: MTCC 3019, 24 h
[26] = system: Pichia kudriavzevii; test: Antifungal activity against Candida krusei MTCC 3020 incubated for 24 hrs at 30 degC by well diffusion method; format: functional; conditions: MTCC 3020, 24 h
[27] = system: Pichia sporocuriosa; test: Antifungal activity against Issatchenkia hanoiensis MTCC 4755 incubated for 24 hrs at 30 degC by well diffusion method; format: functional; conditions: MTCC 4755, 24 h
[28] = system: Candida albicans; test: Fungicidal activity against Candida albicans MTCC 183 incubated for 24 hrs; format: functional; conditions: MTCC 183, 24 h
[29] = system: Candida albicans; test: Fungicidal activity against Candida albicans MTCC 227 incubated for 24 hrs; format: functional; conditions: MTCC 227, 24 h
[30] = system: Candida albicans; test: Fungicidal activity against Candida albicans MTCC 854 incubated for 24 hrs; format: functional; conditions: MTCC 854, 24 h
[31] = system: Candida albicans; test: Fungicidal activity against Candida albicans MTCC 1637 incubated for 24 hrs; format: functional; conditions: MTCC 1637, 24 h
[32] = system: Candida albicans; test: Fungicidal activity against Candida albicans MTCC 3017 incubated for 24 hrs; format: functional; conditions: MTCC 3017, 24 h
[33] = system: Candida albicans; test: Fungicidal activity against Candida albicans MTCC 3018 incubated for 24 hrs; format: functional; conditions: MTCC 3018, 24 h
[34] = system: Candida albicans; test: Fungicidal activity against Candida albicans MTCC 3958 incubated for 24 hrs; format: functional; conditions: MTCC 3958, 24 h
[35] = system: Candida albicans; test: Fungicidal activity against Candida albicans MTCC 4748 incubated for 24 hrs; format: functional; conditions: MTCC 4748, 24 h
[36] = system: Candida albicans; test: Fungicidal activity against Candida albicans MTCC 7315 incubated for 24 hrs; format: functional; conditions: MTCC 7315, 24 h
[37] = system: Candida parapsilosis; test: Fungicidal activity against Candida parapsilosis MTCC 1744 incubated for 24 hrs; format: functional; conditions: Lodderomyces parapsilosis, MTCC 1744, 24 h
[38] = system: [Candida] aaseri; test: Fungicidal activity against Candida aaseri MTCC 1962 incubated for 24 hrs; format: functional; conditions: Yamadazyma aaseri, MTCC 1962, 24 h
[39] = system: Nakaseomyces glabratus; test: Fungicidal activity against Candida glabrata MTCC 3019 incubated for 24 hrs; format: functional; conditions: MTCC 3019, 24 h
[40] = system: Pichia kudriavzevii; test: Fungicidal activity against Candida krusei MTCC 3020 incubated for 24 hrs; format: functional; conditions: MTCC 3020, 24 h
[41] = system: Pichia sporocuriosa; test: Fungicidal activity against Issatchenkia hanoiensis MTCC 4755 incubated for 24 hrs; format: functional; conditions: MTCC 4755, 24 h
[42] = system: Candida albicans; test: Induction of ROS accumulation in Candida albicans MTCC 227 sessile cells at 2 to 8 ug/ml incubated for 24 hrs by DCFH-DA dye based microplate reader analysis; format: functional, organism-based

CCCCCCCCC[C@@H](O)[C@H](CO)n1cc(CO)nn1
> 250 µg/mL: MIC [1] | MIC [3] | MIC [5] | MIC [6] | MIC [7] | MBC [8] | MBC [10] | MBC [12] | MBC [13]
31.2 µg/mL: MIC [2] | MBC [9]
7.8 µg/mL: MIC [4]
15.6 µg/mL: MBC [11]

Clc1ccc(COC(Cn2ccnc2)c2ccc(Cl)cc2Cl)c(Cl)c1 (centres undefined) [MICONAZOLE]
15.6 µg/mL: MFC [29] | MFC [30] | MFC [31] | MFC [34] | MFC [39]
7.8 µg/mL: MIC [14] | MIC [15] | MIC [16] | MIC [17] | MIC [18] | MIC [19] | MIC [20] | MIC [21] | MIC [22] | MIC [23] | MIC [24] | MIC [25] | MIC [26] | MIC [27] | MFC [28] | MFC [32] | MFC [33] | MFC [35] | MFC [36] | MFC [37] | MFC [38] | MFC [40] | MFC [41]
active: Activity [42]

CCCCCCCCC[C@@H](O)[C@H](CO)n1cc(-c2ccccc2)nn1
> 250 µg/mL: MIC [6] | MIC [7] | MBC [13]
15.6 µg/mL: MIC [2] | MIC [3] | MBC [8] | MBC [9]
7.8 µg/mL: MIC [1] | MBC [11]
31.2 µg/mL: MIC [5] | MIC [15] | MIC [23] | MIC [24] | MBC [10] | MFC [38]
3.9 µg/mL: MIC [4]
125 µg/mL: MIC [17] | MIC [19] | MIC [21] | MFC [31] | MFC [32] | MFC [33] | MFC [34] | MFC [35] | MFC [41]
62.5 µg/mL: MIC [14] | MIC [16] | MIC [18] | MIC [20] | MIC [22] | MIC [25] | MIC [26] | MIC [27] | MBC [12] | MFC [28] | MFC [29] | MFC [30] | MFC [36] | MFC [37] | MFC [39] | MFC [40]

CCCCCCCCC[C@@H](O)[C@H](CO)n1cc(CCCCCC)nn1
3.9 µg/mL: MIC [1] | MBC [8]
> 250 µg/mL: MIC [3] | MIC [5] | MIC [6] | MIC [7] | MBC [10] | MBC [12] | MBC [13]
15.6 µg/mL: MBC [9] | MBC [11]
7.8 µg/mL: MIC [2] | MIC [4]

CCCCCCCCC[C@@H](O)[C@H](CO)n1cc(CCO)nn1
15.6 µg/mL: MIC [4]
> 250 µg/mL: MIC [3] | MIC [5] | MIC [6] | MIC [7] | MBC [10] | MBC [12] | MBC [13]
31.2 µg/mL: MIC [1] | MIC [2] | MBC [8] | MBC [9] | MBC [11]
